According to ChEMBL document CHEMBL3227969, “Synthesis and biological activity of 8-oxadihydropteridines” (J Med Chem, 1979):

What was measured:
Enterococcus faecalis [1] = assay: Antibacterial activity against Streptococcus faecalis ATCC 8043; assay type: organism-based
Dihydrofolate reductase = molecular target: T1, Dihydrofolate reductase (Homo sapiens, UniProt P00374); assay: Inhibition of dihydrofolate reductase (unknown origin) using dihydrofolic acid as substrate by spectrophotometry
T1 sequence (P00374 whole entry): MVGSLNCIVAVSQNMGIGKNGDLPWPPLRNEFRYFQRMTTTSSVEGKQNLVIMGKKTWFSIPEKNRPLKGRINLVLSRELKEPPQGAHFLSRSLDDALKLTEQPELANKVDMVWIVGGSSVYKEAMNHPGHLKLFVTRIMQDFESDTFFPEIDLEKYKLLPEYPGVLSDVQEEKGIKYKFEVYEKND

Enterococcus faecalis [2] = assay: Antibacterial activity against Streptococcus faecalis ATCC 8043 at 1 ug/ml; assay type: organism-based

IC50 (Dihydrofolate reductase) [µM] | SMILES | Activity (Enterococcus faecalis [1]) | Activity (Enterococcus faecalis [2])
– | Nc1nc(O)c2c(n1)OC(c1ccccc1)C(c1ccccc1)=N2 (configuration not stated) | Toxic | –
11 | CCCCCC1=Nc2c(O)nc(N)nc2OC1 | Toxic | –
– | CN(Cc1cnc2nc(N)nc(N)c2n1)c1ccc(C(=O)N[C@@H](CCC(=O)O)C(=O)O)cc1 [METHOTREXATE] | – | Toxic
168 | Nc1nc(N)c2c(n1)OCC(c1ccccc1)=N2 | Toxic | –
– | Nc1nc(O)c2c(n1)OCC(CCCc1ccccc1)=N2 | Toxic | –
57 | Nc1nc(O)c2c(n1)OCC(c1ccccc1)=N2 | Toxic | –
– | Nc1nc(N)c2c(n1)OC(c1ccccc1)C(c1ccccc1)=N2 (configuration not stated) | Toxic | –
242 | CC1=Nc2c(O)nc(N)nc2OC1 | Toxic | –
– | Nc1nc(O)c2c(n1)OCC(Cc1ccccc1)=N2 | Toxic | –
– | Nc1nc(O)c2c(n1)OCC(CCc1ccccc1)=N2 | Toxic | –
– | Nc1nc(O)c2c(n1)OCC(CCCCc1ccccc1)=N2 | Toxic | –
– | CC1Oc2nc(N)nc(O)c2N=C1c1ccccc1 (configuration not stated) | Toxic | –
377 | CC1=Nc2c(O)nc(N)nc2OC1C (configuration not stated) | Toxic | –
903 | CC1=Nc2c(N)nc(N)nc2OC1C (configuration not stated) | Toxic | –
740 | CC1=Nc2c(O)nc(N)nc2OC1c1ccccc1 (configuration not stated) | Toxic | –
